Test results reported in patent US20210138080A1, “CONJUGATES” (GLYKOS BIOMEDICAL OY, priority 2018, published 2021).
Entries after “also recorded” stand apart in the source; their conditions may differ. Read-outs that look alike come from different tables or passages of the source.

Experiments:
egg embryos = experiment: in vivo CAM trial: embryo viability (toxicity)
Method: (§1) The study was performed by Inovotion SAS (La Tronche, France). Fertilized chicken eggs were incubated at 37.5° C. with 50% relative humidity for 9 days (E9), when the chorioallantoic membrane (CAM) was dropped down by drilling a small hole through the eggshell into the air sac, and a 1 cm^2 window was cut in the eggshell above the CAM. The NCI-N87 cell line was cultivated in RPMI-1640 medium supplemented with 10% FBS and 1% penicillin/streptomycin. On day E9, cells were detached by trypsin, washed with complete medium and suspended in graft medium. An inoculum of 2 million cells was added onto the CAM of each egg. […] Living grafted eggs were randomized into groups and were then treated on day E10, E11.5, E13, E14.5 and E17 (five doses) by dropping 100 μl of vehicle (PBS) and compounds (alone or in combination) onto the tumor. On day 18 (E18) the upper portion of the CAM was removed, washed in PBS and then directly transferred in PFA (fixation for 48 h). The tumors were then carefully cut away from normal CAM tissue and weighed. Eggs were checked at each treatment time, or at least every two days, for viability during the study. At the end of the study, the number of dead embryos was counted and combined with the observation of eventual visible macroscopic abnormalities (observation done during the sample collection) to evaluate the toxicity.

[1] = test system: NCI-N87 cancer cell line tumors; experiment: in vivo trial, cancer cell xenografts on chicken egg chorioallantoic membrane (CAM): tumor weight; conditions: for Mean tumor size: five doses E10-E17, 1.5 mg/kg pembrolizumab, 1.8 mg/kg 33DFTG, weighed E18, PBS control 30.6
Method: as §1

Galectin-3 [2] = target: T1, Galectin-3 (Homo sapiens, UniProt P17931); conditions: HSC-2 cells, 2 μM 33DFTG for 2 days; control treatment 1247
Method: (§2) After the incubation, cells were stained with Alexa Fluor 488-conjugated human recombinant Galectin-1, and Alexa Fluor 488-conjugated human recombinant Galectin-3 (both from Abcam, Cambridge, United Kingdom; and both at 10 μg/ml) for 45 minutes at +4° C. Cells were washed and stored on ice in the dark until analysed by FACSAriaII flow cytometer.
(§3) In parallel, untreated cells were cultured in normal cell culture medium. For flow cytometry analysis, cells were detached with trypsin, washed, and stained with AlexaFluor488-conjugated Galectin-1 and Galectin-3 proteins as above. FACS was performed as above.

Galectin-3 [3] = target: T1, Galectin-3; conditions: SKOV-3 cells, 2 μM 33DFTG for 3 days; Galectin-3 10 μg/ml; control treatment 1940
Method: as §2

Galectin-1 [4] = target: T2, Galectin-1 (Homo sapiens, UniProt P09382); experiment: Alexa Fluor 488-Galectin-1 binding to HSC-2 cells by FACS; format: cell-based
T2 construct: purchased Abcam, Cambridge, United Kingdom
Method: as §2, §3

Galectin-1 [5] = target: T2, Galectin-1; experiment: Alexa Fluor 488-Galectin-1 binding to SKOV-3 cells by FACS; format: cell-based
Method: as §2

T2 sequence (P09382 whole entry): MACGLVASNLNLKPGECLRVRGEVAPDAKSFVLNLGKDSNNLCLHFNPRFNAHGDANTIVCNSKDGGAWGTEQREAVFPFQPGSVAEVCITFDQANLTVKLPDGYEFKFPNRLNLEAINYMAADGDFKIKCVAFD
T1 sequence (P17931 whole entry): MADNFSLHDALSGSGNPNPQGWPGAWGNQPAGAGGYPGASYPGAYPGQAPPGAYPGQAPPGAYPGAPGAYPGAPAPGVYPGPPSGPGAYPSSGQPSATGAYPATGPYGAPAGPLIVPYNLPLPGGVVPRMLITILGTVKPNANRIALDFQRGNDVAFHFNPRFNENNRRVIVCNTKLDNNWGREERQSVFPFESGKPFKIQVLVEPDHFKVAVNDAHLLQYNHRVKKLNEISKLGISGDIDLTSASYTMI

Row | Compound | % alive (egg embryos; egg embryos at end of study, PBS control 81) [%] | Mean tumor size [1] [mg] | tumor size / therapeutic efficacy compared to control group (in words) ([1]; repeated dose) | Mean fluorescence intensity, Galectin-3 (Galectin-3 [2]) | % alive (egg embryos; chicken, in vivo, 8 days) [%] | Mean fluorescence intensity, Galectin-3 (Galectin-3 [3]) | binding of Galectin-1 to the cells (in words) (Galectin-1 [4]; 2 μM 33DFTG) | Mean fluorescence intensity, Galectin-1 (Galectin-1 [4]; 2 μM 33DFTG for 2 days, control treatment 521) | binding of Galectin-1 to the cells (in words) (Galectin-1 [5]; 2 μM 33DFTG) | Mean fluorescence intensity, Galectin-1 (Galectin-1 [5]; 2 μM 33DFTG for 3 days, Galectin-1 10 μg/ml, control treatment 439)
1 | Pembrolizumab: pembrolizumab (Keytruda, Merck) | 73 | 33.5 | neither pembrolizumab alone or 33DFTG alone showed significant difference | – | – | – | – | – | – | –
2 | OC[C@H]1O[C@@H](S[C@@H]2O[C@H](CO)[C@H](O)[C@H](n3cc(-c4cccc(F)c4)nn3)[C@H]2O)[C@H](O)[C@@H](n2cc(-c3cccc(F)c3)nn2)[C@H]1O [33DFTG, 3,3′-dideoxy-3,3′-bis-[4-(3-fluorophenyl)-1H-1,2,3-triazol-1-yl]-1,1′-sulfanediyl-di-β-D-galactopyranoside] | – | 35.8 | – | 129 | 64 | 165 | effective inhibition; also recorded: clearly decreased | 226 | effective inhibition; also recorded: clearly decreased | 186
